The source of these data is US20240101535A1, “DIHYDROISOQUINOLINONE DERIVATIVE AND APPLICATION THEREOF” (ETERN BIOPHARMA (SHANGHAI) CO., LTD., priority 2020, published 2024).

pIC50: −log10 of the molar value. Structures can show the parent of a compound that is named as a salt. Where two headings read alike, the source gives them in different places. Some results are limits rather than exact numbers.

Experiment [1] has as its target WDR5 protein (22-334aa) with MLL1 polypeptide (3672-3773aa) (Homo sapiens, UniProt P61964). Briefly: WDR5-MLL PPI inhibitory activity test (HTRF). It counts as binding. The settings on record: His-tagged WDR5 and biotin-tagged MLL1 polypeptide. From the text: Test Example 1: WDR5-MLL PPI Inhibitory Activity Test
Effect of the compounds on WDR5 (WD Repeat Domain 5) and MLL1 (mixed-lineage leukemia 1) peptides at molecular level.
The effect of the compound on the interaction of WDR5 protein (22-334aa) with MLL1 polypeptide (3672-3773aa) was detected by HTRF (Homogeneous Time-Resolved Fluorescence) technology. When the N-terminal His-tagged WDR5 recognized by the Anti-6His-Eu cryptate donor interacts with the biotin-tagged MLL1 polypeptide recognized by the streptavidin-APC receptor, the donor and acceptor are pulled close enough to produce fluorescence resonance energy transfer (FRET). […] Therefore, the decrease in FRET signal can reflect the compound's inhibition on the interaction of WDR5 with MLL1 polypeptide.
The compound to be tested was diluted 3-fold with DMSO. […] Then the compound was diluted with reaction buffer (25 mM HEPES pH=7.5, 100 mM NaCl, 0.05% Tween 20) to control the final concentration of DMSO at 0.5%. In a 384-well plate, 1 μL of compound and 3 μL of 42 nM WDR5 protein were added, centrifuged at 1000 rpm for 1 min, incubated at room temperature for 60 min, followed by adding 3 μL of 333 nM MLL1 polypeptide with incubation at room temperature for 10 min, and followed by adding 3 μL of a mixed liquid of Anti-6His-Eu cryptate and streptavidin-APC with centrifugation at 1000 rpm for 1 mi and incubation at room temperature protected from light for 60 min, using a multifunction microplate reader (EnVision®2105) to read the signal. The following controls were set up per plate: control group (1 μL with 5% DMSO reaction buffer, 3 μL of 42 nM WDR5, 3 μL of MLL1 polypeptide, 3 μL of Anti-6His-Eu cryptate and streptavidin-APC). Blank group (1 μL reaction buffer with 5% DMSO, 3 μL reaction buffer, 3 μL MLL1 polypeptide, 3 μL Anti-6His-Eu cryptate and streptavidin-APC). The test data was calculated according to the signal ratio of two beams of fluorescence at different wavelengths: (665 nm signal/620 nm signal)*10000. […] The IC50 value was calculated using XLfit software.
(In general: In TR-FRET formats the signal depends on donor and acceptor labels being close together.)

A further experiment relates to MV4-11 cells. The experiment can be described thus: MV4-11 cell proliferation inhibition experiment (CellTiter-Glo). The settings on record: 6 days, read-out: cell proliferation inhibitory activity. The experiment is classed as cell-based. The method, then: Test Example 2: MV4-11 Cell (ATCC: CRL-9591) Proliferation Inhibition Experiment
ATP in living cells was quantitatively detected by CellTiter-Glo (Promega-G7573) Luminescence Cell Viability Assay Kit to determine the effect of the compounds to be tested on cell proliferation. • Step 1: MV4-11 cells were seeded in 96-well plates (Greiner-655098) at a density of 1,500 cells per well with a volume of 140 μL per well; Cell culture medium components included RPM11640 (Gibco-A10491-01)+10% FBS (Gibco-10099-141C)+1% Penicillin-Streptomycin (5,000 U/mL, Gibco-15070-063). • Step 2: On the day of cell seeding, the cells were treated with the compound to be tested. The compound to be tested was diluted with a 3-fold gradient, and a total of 9 concentration gradients were set. DMSO (Sigma, D2650) with 0.5% final concentration or a DMSO solution containing the compound to be tested was added per well with 2 or 3 replicate wells at each concentration point. The plates were incubated at 37° C. in a 5% CO2 incubator (Thermo Scientific Steri-Cycle 371) for 6 days. • Step 3: The cell viability in the control and treatment groups was detected with CellTiter-Glo Luminescent Cell Viability Assay Kit. 50 μL of CellTiter-Glo was added per well, mixed well, and incubated for 15 min at room temperature protected from light. According to the kit instructions, the chemiluminescence signal was read using a multifunctional microplate reader (EnVision, PerkinElmer).
The inhibition percentage (%) of the compound at each concentration point was calculated by the following formula:
Inhibition Percentage (%)=(1−signal value of the group treated with the compound/signal value of the group treated with DMSO)*100.
The value of cell proliferation semi-inhibitory concentration IC50 was calculated using GraphPad Prism software, and the results are shown in Table 2.

Turning to `CCOc1cc(C(C)N2CC3(CC3(F)F)c3c(CN(C)C)cc(Cn4ccnc4NC)cc3C2=O)ncc1F` (single isomer, unassigned) [Compound 88], the pIC50 was greater than 7.70 in experiment [1] and greater than 7.30 with MV4-11 cells (Homo sapiens, 144 h).

As for `CCOc1cc(C(C)N2CC3(CC3(F)F)c3c(CN(C)C)cc(Cn4ccnc4NC)cc3C2=O)ncc1F` (single isomer, unassigned) [Compound 89], the pIC50 in experiment [1] is greater than 7.70; with MV4-11 cells, greater than 7.30.

As for `CCOc1cc([C@H](C)N2C[C@@]3(CC3(F)F)c3c(CN4CCN(C)CC4)cc(Cn4ccnc4NC)cc3C2=O)ncc1F` (single isomer, unassigned) [Compound 92, 2′-(-1-(4-ethoxy-5-fluoropyridine-2-yl)ethyl)-2,2-difluoro-7′-((2-(methylamino)-1H-imidazol-1-yl)methyl)-5′-((4-methylpiperazin-1-yl)methyl)-2′,3′-dihydro-1′H-spiro[cyclopropan-1,4′-isoquinoline]-1′-one formate salt], the pIC50 in experiment [1] is greater than 7.70; in the experiment on MV4-11 cells (Homo sapiens, 144 h), 6.70 to 7.30.

Turning to `CCOc1cc([C@@H](C)N2C[C@@]3(CC3(F)F)c3c(CN4CCN(C)CC4)cc(Cn4ccnc4NC)cc3C2=O)ncc1F` (stereo in doubt) [Compound 93, 2′-(-1-(4-ethoxy-5-fluoropyridine-2-yl)ethyl)-2,2-difluoro-7′-((2-(methylamino)-1H-imidazol-1-yl)methyl)-5′-((4-methylpiperazin-1-yl)methyl)-2′,3′-dihydro-1′H-spiro[cyclopropan-1,4′-isoquinoline]-1′-one formate salt], the pIC50 in experiment [1] is greater than 7.70; in the experiment on MV4-11 cells (Homo sapiens, 144 h), greater than 7.30.

In the case of `CCOc1cc([C@H](C)N2CC3(CC3(F)F)c3c(CN(C)C)cc(Cn4ccnc4NC)cc3C2=O)ncc1C#N` (stereo in doubt) [Compound 95, 6-(-1-(5′-((dimethylamino)methyl)-2,2-difluoro-7′-((2-(methylamino)-1H-imidazol-1-yl)methyl)-1′-one-1′H-spiro[cyclopropan-1,4′-isoquinoline]-2′(3′H)-yl)ethyl)-4-ethoxynicotinonitrileformate salt], the pIC50 in experiment [1] is greater than 7.70; in the experiment on MV4-11 cells (Homo sapiens, 144 h) it was greater than 7.30.

Consider `CCOc1cc([C@@H](C)N2C[C@]3(CC3(F)F)c3c(CN(C)C)cc(Cn4ccnc4NC)cc3C2=O)ncc1F` (stereo in doubt) [Compound 96, (S)-5′-((dimethylamino)methyl)-2′-((R)-1-(4-ethoxy-5-fluoropyridine-2-yl)ethyl)-2,2-difluoro-7′-((2-(methylamino)-1H imidazol-1-yl)methyl)-2′, 3′-dihydro-1′H-spiro[cyclopropan-1,4′-isoquinoline]-1′-one], for which the pIC50 in experiment [1] is greater than 7.70; in the experiment with MV4-11 cells (Homo sapiens, 144 h), greater than 7.30.

Turning to `CNc1nccn1Cc1cc(CN(C)C)c2c(c1)C(=O)N([C@@H](C)c1cc(OC)c(C#N)cn1)CC21CC1` [Compound 2], the pIC50 in experiment [1] is greater than 7.70; with MV4-11 cells (Homo sapiens, 144 h), 6.70 to 7.30.

As for `CCOc1cc([C@H](C)N2CC3(CC3)c3c(CN(C)C)cc(Cn4ccnc4NC)cc3C2=O)ncc1C#N` [Compound 3], the pIC50 is greater than 7.70 in experiment [1] and greater than 7.30 in the experiment on MV4-11 cells (Homo sapiens, 144 h).

Take `CNc1nccn1Cc1cc(CN(C)C)c2c(c1)C(=O)N([C@@H](C)c1cnc(F)c(OC)c1)CC21CC1` [Compound 4]: the pIC50 in experiment [1] was greater than 7.70; in the experiment on MV4-11 cells (Homo sapiens, 144 h), greater than 7.30.

As for `CNc1nccn1Cc1cc(CN(C)C)c2c(c1)C(=O)N([C@@H](C)c1cc(OC)c(F)cn1)CC21CC1` [Compound 5], the pIC50 in experiment [1] is greater than 7.70; in the experiment on MV4-11 cells (Homo sapiens, 144 h) it was greater than 7.30.

For `CCOc1cc([C@H](C)N2CC3(CC3)c3c(CN4CCOCC4)cc(Cn4ccnc4NC)cc3C2=O)ncc1F` [Compound 8], the pIC50 is greater than 7.70 in experiment [1] and 6.70 to 7.30 in the experiment on MV4-11 cells (Homo sapiens, 144 h).

In the case of `CCOc1cc([C@H](C)N2CC3(CC3)c3c(CN(CC)CC)cc(Cn4ccnc4NC)cc3C2=O)ncc1F` [Compound 10, (S)-5′-(diethylamino)methyl)-2′-(1-(4-ethoxy-5-fluoropyridine-2-ylethyl)-7′-((2-(methylamino)-1H-imidazol-1-yl)methyl)-2′,3′-dihydro-1′H-spiro[cyclopropan-1,4′-isoquinoline]-1′-one], the pIC50 is greater than 7.70 in experiment [1] and 6.70 to 7.30 in the experiment with MV4-11 cells (Homo sapiens, 144 h).

As to `CNc1nccn1Cc1cc(CN(C)C)c2c(c1)C(=O)N([C@@H](C)c1cc(OC3CC3)c(F)cn1)CC21CC1` [Compound 14], the pIC50 in experiment [1] is greater than 7.70; in the experiment with MV4-11 cells (Homo sapiens, 144 h), 6.70 to 7.30.

`CCOc1cc([C@H](C)N2CC3(CCC3)c3c(CN(C)C)cc(Cn4ccnc4NC)cc3C2=O)ncc1F` [Compound 18, (S)-5′-((dimethylamino)methyl)-2′-(1-(4-ethoxy-5-fluoropyridine-2-yl)ethyl)-7′-((2-(methylamino)-1H-imidazol-1-yl)methyl)-2′,3′-dihydro-1′H-spiro[cyclobutan-1,4′-isoquinoline]-1′-one]: the pIC50 in experiment [1] was greater than 7.70; in the experiment on MV4-11 cells (Homo sapiens, 144 h) it was 6.70 to 7.30.

For `CCOc1cc([C@H](C)N2CC3(CCCC3)c3c(CN(C)C)cc(Cn4ccnc4NC)cc3C2=O)ncc1F` [Compound 19, (S)-5′-((dimethylamino)methyl)-2′-(1-(4-ethoxy-5-fluoropyridine-2-yl)ethyl)-7′-((2-(methylamino)-1H-imidazol-1-yl)methyl)-2′,3′-dihydro-1′H-spiro[cyclopentan-1,4′-isoquinoline]-1′-one], the pIC50 was greater than 7.70 in experiment [1] and greater than 7.30 in the experiment on MV4-11 cells (Homo sapiens, 144 h).

Consider `CCOc1cc([C@H](C)N2CC3(CC3)c3c(CN4CCN(C)CC4)cc(Cn4ccnc4NC)cc3C2=O)ncc1F` [Compound 37], for which the pIC50 was greater than 7.70 in experiment [1] and greater than 7.30 in the experiment with MV4-11 cells (Homo sapiens, 144 h).

For `CCOc1cc(C(C)N2CC3(CC3)c3c(CN(C)CC(F)(F)F)cc(Cn4ccnc4NC)cc3C2=O)ncc1F` (centres unmarked) [Compound 41, 2′-(1-(4-ethoxy-5-fluoropyridine-2-yl)ethyl)-5′-((methyl(2,2,2-trifluoroethyl)amino)methyl)-7′-((2-(methylamino)-1H-imidazol-1-yl)methyl)-2′,3′-dihydro-1′H-spiro[cyclopropan-1,4′-isoquinoline]-1′-one], the pIC50 in experiment [1] was 7.00 to 7.70; in the experiment with MV4-11 cells (Homo sapiens, 144 h), 6.70 to 7.30.

`CNc1nccn1Cc1cc(CN(C)C)c2c(c1)C(=O)N([C@@H](C)c1cc(OC(F)F)c(F)cn1)CC21CC1` [Compound 55]: the pIC50 is greater than 7.70 in experiment [1] and 6.70 to 7.30 in the experiment with MV4-11 cells (Homo sapiens, 144 h).

As to `CCOc1cc([C@H](C)N2CC3(CC3)c3c(CN4CCN(CC)CC4)cc(Cn4ccnc4NC)cc3C2=O)ncc1F` [Compound 57], the pIC50 in experiment [1] was greater than 7.70; in the experiment on MV4-11 cells (Homo sapiens, 144 h) it was greater than 7.30.

Turning to `CCOc1cc([C@H](C)N2CC3(CC3)c3c(CN4CCOCC4)cc(Cn4ccnc4NC)cc3C2=O)ncc1C#N` [Compound 59], the pIC50 is greater than 7.70 in experiment [1] and greater than 7.30 in the experiment with MV4-11 cells (Homo sapiens, 144 h).

On to `CNc1nccn1Cc1cc(CN2CC(F)(F)C2)c2c(c1)C(=O)N([C@@H](C)c1cc(OC)c(C#N)cn1)CC21CC1` [Compound 61], for which the pIC50 in experiment [1] was greater than 7.70; in the experiment with MV4-11 cells (Homo sapiens, 144 h), 6.70 to 7.30.

As for `CCOc1cc([C@H](C)N2CC3(CC3)c3c(CN4CCN(CC(F)(F)F)CC4)cc(Cn4ccnc4NC)cc3C2=O)ncc1C#N` [Compound 63, (S)-4-ethoxy-6-(1-(7′-((2-(methylamino)-1H-imidazol-1-yl)methyl)-1′-one-5′-((4-(2,2,2-trifluoroethyl)piperazin-1-yl)methyl)-1′H-spiro[cyclopropan-1,4′-isoquinoline]-2′(3′H)-yl)ethyl)nicotinonitrile], the pIC50 in experiment [1] was greater than 7.70; in the experiment on MV4-11 cells (Homo sapiens, 144 h), 6.70 to 7.30.
